Experimental data from patent US9346761B2, “Arginine methyltransferase inhibitors and uses thereof” (Epizyme, Inc., priority 2013, dated 2016).

Legend:
[1] = target: T1, Full-length human PRMT6 (Homo sapiens, UniProt Q96LA8); experiment: PRMT6 biochemical assay (3H-SAM Flashplate, peptide substrate)
T1 construct: Flag-PRMT6-His was eluted with 200 ug/ml FLAG peptide in the same buffer; made in house; host or cells: HEK 293F cells (BacMam virus, pFastBacMam)
Method in brief: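 Flag-PRMT6-His from baculovirus-infected cells, preincubated with compound 30 min at room temperature, then SAM/3H-SAM and biotinylated H4 36-50 peptide added; 20 mM Bicine pH 7.6, TCEP, BSG, Tween 20. Quenched with cold SAM, captured on streptavidin Flashplates; % inhibition from SAH/DMSO controls, 3- or 4-parameter IC50 fit.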

[2] = target: T2, Human CARM1 (PRMT4) (Homo sapiens, UniProt Q86X55); experiment: CARM1 biochemical assay (3H-SAM Flashplate, peptide substrate)
T2 construct: Flag-CARM1-His was eluted with 200 ug/ml FLAG peptide in buffer A; made in house; host or cells: HEK 293F cells (BacMam virus, pFastBacMam)
T2 sequence (Q86X55 with tags, fused parts or gaps isoform Q86X55-1): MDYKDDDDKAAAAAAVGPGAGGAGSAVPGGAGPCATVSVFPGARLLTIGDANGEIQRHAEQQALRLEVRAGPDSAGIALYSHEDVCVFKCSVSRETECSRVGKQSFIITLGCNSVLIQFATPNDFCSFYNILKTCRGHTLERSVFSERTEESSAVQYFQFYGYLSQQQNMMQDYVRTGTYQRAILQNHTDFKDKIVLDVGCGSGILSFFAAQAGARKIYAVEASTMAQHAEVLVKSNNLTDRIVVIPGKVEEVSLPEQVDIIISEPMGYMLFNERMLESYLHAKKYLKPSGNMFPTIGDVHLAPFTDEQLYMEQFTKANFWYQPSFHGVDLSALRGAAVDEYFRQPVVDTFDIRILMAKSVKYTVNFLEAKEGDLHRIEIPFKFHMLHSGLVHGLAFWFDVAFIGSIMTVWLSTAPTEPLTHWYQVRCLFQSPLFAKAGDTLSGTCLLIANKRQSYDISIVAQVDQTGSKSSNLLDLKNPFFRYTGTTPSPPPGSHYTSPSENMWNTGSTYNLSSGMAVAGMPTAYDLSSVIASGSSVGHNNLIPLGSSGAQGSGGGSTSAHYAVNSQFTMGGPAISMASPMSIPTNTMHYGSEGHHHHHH
Text: General Materials. S-adenosylmethionine (SAM), S-adenosylhomocysteine (SAH), bicine, Tween20, dimethylsulfoxide (DMSO), bovine skin gelatin (BSG), sodium butyrate and Tris(2-carboxyethyl)phosphine hydrochloride solution (TCEP) were purchased from Sigma-Aldrich at the highest level of purity possible. ^3H-SAM was purchase from American Radiolabeled Chemicals with a specific activity of 80 Ci/mmol. 384-well streptavidin Flashplates were purchased from PerkinElmer.
Substrates. Peptide representative of human histone H3 residues 16-30 was synthesized with an N-terminal linker-affinity tag motif and a C-terminal amide cap by 21st Century Biochemicals.
Protein Expression. Recombinant baculovirus were generated according to Bac-to-Bac kit instructions (Life Technologies). […] Infections were carried out at 37° C. for 48 hours, harvested by centrifugation, and stored at −80° C. for purification.
Protein Purification. […] Column was washed with 500 mM NaCl in buffer A and Flag-CARM1-His was eluted with 200 ug/ml FLAG peptide in buffer A. Pooled fractions were dialyzed in 20 mM Tris, 150 mM NaCl, 5% glycerol and 1 mM DTT, pH 7.8.
General Procedure for CARM1 Enzyme Assays on Peptide Substrates. The assays were all performed in a buffer consisting of 20 mM Bicine (pH=7.6), 1 mM TCEP, 0.005% BSG, and 0.002% Tween 20, prepared on the day of use. […] DMSO (1 ul) was added to Columns 11, 12, 23, 24, rows A-H for the maximum signal control and 1 ul of SAH, a known product and inhibitor of CARM1, was added to columns 11, 12, 23, 24, rows I-P for the minimum signal control. A cocktail (40 ul) containing the CARM1 enzyme was added by Multidrop Combi (Thermo-Fisher). The compounds were allowed to incubate with CARM1 for 30 min at room temperature, then a cocktail (10 ul) containing ^3H-SAM and peptide was added to initiate the reaction (final volume=51 ul). […] The assays were stopped by the addition of non-radiolabeled SAM (10 ul) to a final concentration of 300 uM, which dilutes the ^3H-SAM to a level where its incorporation into the peptide substrate is no longer detectable. 50 ul of the reaction in the 384-well polypropylene plate was then transferred to a 384-well Flashplate and the biotinylated peptides were allowed to bind to the streptavidin surface for at least 1 hour before being washed once with 0.1% Tween20 in a Biotek ELx405 plate washer. The plates were then read in a PerkinElmer TopCount plate reader to measure the quantity of ^3H-labeled peptide bound to the Flashplate surface, measured as disintegrations per minute (dpm) or alternatively, referred to as counts per minute (cpm).
Where dpm=disintegrations per minute, cmpd=signal in assay well, and min and max are the respective minimum and maximum signal controls.
Where top and bottom are the normally allowed to float, but may be fixed at 100 or 0 respectively in a 3-parameter fit. The Hill Coefficient normally allowed to float but may also be fixed at 1 in a 3-parameter fit. Y is the % inhibition and X is the compound concentration.

T1 sequence (Q96LA8 with tags, fused parts or gaps): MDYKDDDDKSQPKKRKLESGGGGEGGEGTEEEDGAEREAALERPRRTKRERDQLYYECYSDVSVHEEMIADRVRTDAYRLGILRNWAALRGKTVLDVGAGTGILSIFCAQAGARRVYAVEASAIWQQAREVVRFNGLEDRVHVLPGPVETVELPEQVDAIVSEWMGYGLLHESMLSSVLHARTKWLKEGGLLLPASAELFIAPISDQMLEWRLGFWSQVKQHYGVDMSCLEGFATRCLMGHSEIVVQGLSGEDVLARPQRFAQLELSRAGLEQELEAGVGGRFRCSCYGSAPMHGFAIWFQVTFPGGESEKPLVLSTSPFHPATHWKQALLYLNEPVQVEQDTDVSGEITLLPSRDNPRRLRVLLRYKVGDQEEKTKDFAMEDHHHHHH

Structure (SMILES)	IC50 [1] [µM]	IC50 [2] [µM]
CN(CCN)Cc1n[nH]cc1-c1ccc(OC(F)F)cc1 [Compound 138]	< 0.1	1.01 to 3
CN(CCN)Cc1c[nH]nc1-c1ccccc1C#N [Compound 140]	1.01 to 3	> 10
CN(CCN)Cc1c[nH]nc1-c1ccc(C(F)(F)F)c(F)c1 [Compound 141]	< 0.1	1.01 to 3
COc1cc(-c2n[nH]cc2CN(C)CCN)ccc1F [Compound 142]	< 0.1	1.01 to 3
CCN(CC)C(=O)c1ccc(-c2n[nH]cc2CN(C)CCN)cc1 [Compound 143]	0.101 to 1	3.01 to 10
CC(C)Oc1ccc(-c2c[nH]nc2CN(C)CCN)cc1F [Compound 144]	< 0.1	3.01 to 10
CN(CCN)Cc1n[nH]cc1-c1ccc(C2CCOCC2)cc1 [Compound 145]	< 0.1	3.01 to 10
COc1ccc(-c2n[nH]cc2CN(C)CCN)c(Cl)c1 [Compound 146]	< 0.1	3.01 to 10
CN(CCN)Cc1c[nH]nc1-c1cc(C#N)ccc1Cl [Compound 147]	< 0.1	> 10
CN(CCN)Cc1c[nH]nc1-c1ccc(C(F)(F)F)cc1F [Compound 148]	< 0.1	> 10
CN(CCN)Cc1c[nH]nc1-c1cccc(N(C)C)c1 [Compound 149]	< 0.1	1.01 to 3
CCOC(=O)c1cccc(-c2n[nH]cc2CN(C)CCN)c1 [Compound 150]	< 0.1	1.01 to 3
COc1cc(F)ccc1-c1n[nH]cc1CN(C)CCN [Compound 151]	0.101 to 1	3.01 to 10
Cc1cc(F)ccc1-c1n[nH]cc1CN(C)CCN [Compound 152]	< 0.1	3.01 to 10
COc1ccc(-c2n[nH]cc2CN(C)CCN)cc1 [Compound 153]	< 0.1	1.01 to 3
COc1ccc(-c2n[nH]cc2CN(C)CCN)c(C(F)(F)F)c1 [Compound 154]	0.101 to 1	> 10
COc1ccc(-c2n[nH]cc2CN(C)CCN)c(C)c1 [Compound 155]	< 0.1	> 10
CN(CCN)Cc1c[nH]nc1-c1cc(Cl)ccc1F [Compound 156]	< 0.1	3.01 to 10
COc1ccc(Cl)cc1-c1n[nH]cc1CN(C)CCN [Compound 157]	0.101 to 1	> 10
Cc1ccc(C#N)cc1-c1n[nH]cc1CN(C)CCN [Compound 158]	0.101 to 1	> 10
Cc1ccc(F)cc1-c1n[nH]cc1CN(C)CCN [Compound 159]	< 0.1	> 10
COc1ccc(F)cc1-c1n[nH]cc1CN(C)CCN [Compound 160]	0.101 to 1	> 10
Cc1ccccc1-c1n[nH]cc1CN(C)CCN [Compound 161]	< 0.1	3.01 to 10
Cc1ccc(-c2n[nH]cc2CN(C)CCN)cc1 [Compound 162]	< 0.1	0.101 to 1
